Test results taken from patent US20240209334A1, “SMALL-MOLECULE-ACTIVATED GLYCAN MODIFYING ENZYMES AND USES THEREOF” (President and Fellows of Harvard College, priority 2022, published 2024).

Columns and labels:
Assay type in all cases: cell-based, human
MCF7-C181 cells [1] = experiment: Cell viability, CCK-8 assay; settings: 48 hours
Description: (§1) In addition to serving as an activator for intein splicing, 4-HT is also known as the active metabolite of tamoxifen, an FDA-approved drug for treating breast cancer patients. Breast cancer cells also have elevated OGT expression (39) and decreased levels of OGA (40, 41), resulting in elevated O-GlcNAcylation in the proteome. OGT is usually required for tumor growth and metastasis (39), and low OGA expression is correlated with poor survival in breast cancer patients (FIG. 13). The ER positive breast cancer-derived MCF-7 cell line is sensitive to tamoxifen and 4-HT, resulting in suppression of cell proliferation, yet drug resistance occurs after long-term treatment (42). […] To determine if reduction of O-GlcNAc sensitized MCF-7 cells to 4-HT treatment, it was assessed whether 4-HT induced inhibition of breast cancer cell proliferation and OGA-intein activation worked synergistically to accelerate cell death (FIG. 5A). […] Next, these two cell lines were treated with 4-HT at increasing concentrations, and cell viability was measured after 48 hours. […] Given that 4-HT promoted MCF-7 cell death through apoptosis (43), the apoptosis of these cells under 4-HT treatment was further analyzed through flow cytometry analyses following Annexin V and DAPI staining. […]
(§2) Cell viability assay. Cell viability was assessed by CCK-8 assay. […]

MCF7-C181_D174N cells = experiment: Cell viability, CCK-8 assay; settings: 48 hours
Description: as §1, §2

regular MCF-7 cells = experiment: Cell viability, CCK-8 assay; settings: 48 hours
Description: as §1, §2

MCF7-C181 cells [2] = experiment: Apoptosis, Annexin V/DAPI flow cytometry; settings: 10 μM 4-HT for 24 hours
Description: as §1
(§3) Detection of cell apoptosis. […] Data was analyzed by FlowJo v10.

MCF7-C181_D174N = experiment: Apoptosis, Annexin V/DAPI flow cytometry; settings: 10 μM 4-HT for 24 hours
Description: as §1, §3

CC/C(=C(\c1ccc(O)cc1)c1ccc(OCCN(C)C)cc1)c1ccccc1 [4-HT, 4-hydroxytamoxifen]
4-HT concentration giving almost complete cell survival inhibition (MCF7-C181 cells [1]): 5 µM
4-HT concentration required for suppressing survival (MCF7-C181_D174N cells): > 5 µM
4-HT concentration required for suppressing survival (regular MCF-7 cells): > 5 µM
apoptotic cells (MCF7-C181 cells [2]): 6.84%
apoptotic cells (MCF7-C181_D174N): 6.09%
